These results are taken from publication PMC11247503 (Journal of Medicinal Chemistry, 2024).

Counter-ions that a name gives are not always drawn.

The assay deals with T1, mouse Spns2 (Mus musculus, UniProt Q91VM4).
T1 construct: expressed in transfected cells; host or cells: HeLa cells (G418-resistant pools)
T1 sequence (Q91VM4 1-549): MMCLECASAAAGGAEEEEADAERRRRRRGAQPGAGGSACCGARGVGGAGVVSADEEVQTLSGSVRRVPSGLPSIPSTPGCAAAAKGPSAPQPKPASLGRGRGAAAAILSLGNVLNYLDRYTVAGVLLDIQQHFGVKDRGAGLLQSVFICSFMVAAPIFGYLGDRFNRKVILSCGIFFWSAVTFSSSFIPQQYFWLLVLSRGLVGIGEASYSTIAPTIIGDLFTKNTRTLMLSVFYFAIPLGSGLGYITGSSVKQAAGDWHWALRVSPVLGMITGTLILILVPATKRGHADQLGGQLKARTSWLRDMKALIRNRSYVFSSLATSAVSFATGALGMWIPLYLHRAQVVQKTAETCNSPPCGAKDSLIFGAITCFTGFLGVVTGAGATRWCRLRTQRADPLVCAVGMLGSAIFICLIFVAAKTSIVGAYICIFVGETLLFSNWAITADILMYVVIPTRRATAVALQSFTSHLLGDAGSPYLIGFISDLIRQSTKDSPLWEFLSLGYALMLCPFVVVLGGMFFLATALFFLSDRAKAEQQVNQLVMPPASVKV
Put plainly: HeLa cell S1P release assay (Spns2 inhibition). Particulars: HeLa cells; for inhibition at 0.3 µM / inhibition at 1 µM: HeLa; for inhibition at 0.3 µM: 0.3 μM inhibitor (Figure 5), read-out: % Inhibition, tail homologation study; for inhibition at 1 µM / %Inhib. (Spns2 inhibition, percent decrease in S1P secretion relative to control): 1 μM inhibitor, S1P in media by LC-MS/MS; for inhibition at 1 µM: read-out: %Inhib. (Spns2 inhibition, percent decrease in S1P secretion relative to control); for %Inhib. (Spns2 inhibition, percent decrease in S1P secretion relative to control): 1 µM. The format is cell-based. On the procedure: With a library of analogs of SLB1122168 containing phenylurea, phenylcarbamate, and benzamide as bioisostere of the benzoxazole, we investigated their potential in inhibiting S1P transport using a HeLa cell assay.[36]−[38],[43] Briefly, in this assay, Spns2 is overexpressed whereas the S1P-degrading enzymes (lyase or phosphatases) were blocked with inhibitors.[44],[45] Inhibition of S1P transport is determined by measuring the amount of S1P in the buffer using LC-MS.
This assay was conducted as reported by Kharel et al.[43] Briefly, compounds were assessed in a HeLa cell assay at a 1 μM test concentration, unless noted otherwise. HeLa cells were transfected with a pcDNA3.1 plasmid encoding mouse Spns2, and pools of cells resistant to G418 were selected. S1P catabolic pathways were suppressed by the addition of 4-deoxypyridoxine (1 mM), NaF (2 mM), and Na3VO4 (0.2 mM). After growing cells to near confluence on 12-well tissue culture dishes, growth media was removed, inhibitors were introduced in release media (serum free medium containing 0.2% fatty acid free BSA), and the cells were incubated for 16–18 h at 37 °C. The BSA with bound S1P was concentrated from the release media by TFA-driven precipitation after addition of the d7-S1P internal standard, the S1P extracted from the protein pellet, and quantified by LC-MS/MS. Lower levels of S1P release into the media indicated greater degrees of Spns2 inhibition. Inhibition is reported as the percent decrease in S1P release relative to the control where no inhibitor was introduced.

For orientation: inhibition means the change of the read-out against control, counted positive when it falls. Regarding `CCCCCCc1ccc(NC(=O)N2CCNCC2)cc1` [20a, N-(4-Hexylphenyl)piperazine-1-carboxamide Hydrogen Chloride], the inhibition at 0.3 µM is 19 ± 2%.

Take `CCCCCCCCCCc1ccc(C(=O)N2CCNCC2C)cc1` (racemic) [(±)-4j, (4-Decylphenyl)(2-methylpiperazin-1-yl)methanone Hydrochloride]: the inhibition at 1 µM was found to be 61 ± 2%.

On to `CCCCCCCCCCc1ccc(NC(=O)O[C@@H]2CCCNC2)cc1` [(R)-8d, (R)-Piperidin-3-yl (4-Decylphenyl)carbamate Hydrochloride], for which the inhibition at 1 µM came to 45 ± 3%.

With `CCCCCCCCCCc1ccc(NC(=O)N2CC3CCC(C2)N3)cc1` [11k, N-(4-Decylphenyl)-3,8-diazabicyclo[3.2.1]octane-3-carboxamide Hydrochloride], the inhibition at 1 µM stood at 77%. Turning to `CCCCCCCCCCc1ccc(NC(=O)O[C@H]2CCNC2)cc1` [(S)-8c, (S)-Pyrrolidin-3-yl (4-Decylphenyl)carbamate Hydrochloride], the inhibition at 1 µM was found to be 46%.

Regarding `CCCCCCCCCCc1ccc(C(=O)N[C@@H]2CCCNC2)cc1` [(R)-4e, (R)-4-Decyl-N-(piperidin-3-yl)benzamide Hydrochloride], the inhibition at 1 µM was 73 ± 1%. In the case of `CCCCCCCCCCc1ccc(C(=S)N[C@@H]2CCNC2)cc1` [(R)-15b, (R)-4-Decyl-N-(pyrrolidin-3-yl)benzothioamide Hydrochloride], the inhibition at 1 µM turned out to be 33 ± 3%. In the case of `CCCCCCCCCCc1ccc(C(=O)N[C@H]2CCNC2)cc1.Cl` [(S)-4d, (S)-4-Decyl-N-(pyrrolidin-3-yl)benzamide Hydrochloride], the “%Inhib. (Spns2 inhibition, percent decrease in S1P secretion relative to control)” value turned out to be 61 ± 5% and the inhibition at 1 µM fell in the range of 61 to 66%. For `CCCCCCCCCCc1ccc(C(=O)N(C)[C@@H]2CCCNC2)cc1` [(R)-13c, (R)-4-Decyl-N-Methyl-N-(piperidin-3-yl)benzamide Hydrochloride], the inhibition at 1 µM came out at 51 ± 2%. Turning to `CCCCCCCCCCc1ccc(C(=S)NCCCN)cc1` [15a, N-(3-Aminopropyl)-4-decylbenzothioamide Hydrochloride], the inhibition at 1 µM came out at 23 ± 1%.

In the case of `CCCCCCCCCCc1ccc(NC(=O)N[C@@H]2CCNC2)cc1` [(R)-11c, (R)-1-(4-Decylphenyl)-3-(pyrrolidin-3-yl)urea Hydrochloride], the inhibition at 1 µM amounted to 49%. For `CCCCCCCCc1ccc(NC(=O)N2CCNCC2)cc1` [20c, N-(4-Octylphenyl)piperazine-1-carboxamide Hydrogen Chloride], the inhibition at 0.3 µM worked out at 48 ± 7%.

`CCCCCCCCCCc1ccc(C(=O)N[C@H]2CCCNC2)cc1` [(S)-4f, (S)-4-Decyl-N-(piperidin-3-yl)benzamide Hydrochloride]: the inhibition at 1 µM worked out at 20 ± 3%. For the compound `CCCCCCCCCCCCc1ccc(NC(=O)N2CCNCC2)cc1` [20f, N-(4-Dodecylphenyl)piperazine-1-carboxamide Hydrogen Chloride], the inhibition at 0.3 µM stood at 57 ± 1%.

As for `CCCCCCCCCCc1ccc(C(=O)N2CCNCC2)cc1` [4h, (4-Decylphenyl)(piperazin-1-yl)methanone Hydrochloride], the inhibition at 1 µM is 68 ± 5%. For the compound `CCCCCCCCCCc1ccc(NC(=O)N2CCC(N)CC2)cc1` [11g, 4-Amino-N-(4-decylphenyl)piperidine-1-carboxamide Hydrochloride], the inhibition at 1 µM was found to be 59 ± 2%.

Take `CCCCCCCCCCc1ccc(C(=O)N(C)[C@@H]2CCNC2)cc1` [(R)-13b, (R)-4-Decyl-N-methyl-N-(pyrrolidin-3-yl)benzamide Hydrochloride]: the inhibition at 1 µM amounted to 21 ± 1%. Same read-out and setting: as for `CCCCCCCCCCc1ccc(C(=O)N2CC3CC2CN3)cc1` (centres unmarked) [4l, (2,5-Diazabicyclo[2.2.1]heptan-2-yl)(4-decylphenyl)methanone Hydrochloride], the figure is 25 ± 2%. For `CCCCCCCCCCc1ccc(NC(=O)NCCCN)cc1` [11a, 1-(3-Aminopropyl)-3-(4-decylphenyl)urea Hydrochloride], the inhibition at 1 µM amounted to 53%.

Take `CCCCCCCCCCc1ccc(C(=O)NC2CCNCC2)cc1` [4g, 4-Decyl-N-(piperidin-4-yl)benzamide Hydrochloride]: the inhibition at 1 µM was 24 ± 2%. Take `CCCCCCCCCCc1ccc(NC(=O)NC2CNC2)cc1` [11b, 1-(Azetidin-3-yl)-3-(4-decylphenyl)urea 2,2,2-Trifluoroacetate]: the inhibition at 1 µM turned out to be 59 ± 1%. The same measure, in the same setting: the result for `CCCCCCCCCCc1ccc(C(=O)N2CC3CCC(C2)N3)cc1` [4k, (3,8-Diazabicyclo[3.2.1]octan-3-yl)(4-decylphenyl)methanone Hydrochloride] reads 0%; that for `CCCCCCCCCCc1ccc(NC(=O)N2CC[N+](C)(C)CC2)cc1` [18b, 4-((4-Decylphenyl)carbamoyl)-1,1-dimethylpiperazin-1-ium Iodide], 5 ± 3%. On the same count and under the same terms, as for `CCCCCCCCCCc1ccc(C(=O)NCCCN)cc1` [4a, N-(3-Aminopropyl)-4-decylbenzamide Hydrochloride], the figure is 39 ± 9%. Take `CCCCCCCCCCc1ccc(N(C)C(=O)N2CC3CC2CN3)cc1` (centres unmarked) [17b, N-(4-Decylphenyl)-N-methyl-2,5-diazabicyclo[2.2.1]heptane-2-carboxamide Hydrochloride]: the inhibition at 1 µM worked out at 24 ± 9%. As for `CCCCCCCCCCc1ccc(NC(=O)N2CCN[C@H](C)C2)cc1` [(R)-11l, (R)-N-(4-Decylphenyl)-3-methylpiperazine-1-carboxamide Hydrochloride], the inhibition at 1 µM was at least 80%. Take `CCCCCCCCCCc1ccc(C(=S)N[C@@H]2CCCNC2)cc1` [(R)-15c, (R)-4-Decyl-N-(piperidin-3-yl)benzothioamide Hydrochloride]: the inhibition at 1 µM was determined as 47%. On to `CCCCCCCCCCc1ccc(C(=O)N[C@@H]2CCNC2)cc1.Cl` [(R)-4c, (R)-4-Decyl-N-(pyrrolidin-3-yl)benzamide Hydrochloride], for which the “%Inhib. (Spns2 inhibition, percent decrease in S1P secretion relative to control)” value stood at 66 ± 1% and the inhibition at 1 µM lay in the range of 61 to 66%. On to `CCCCCCCCCCc1ccc(NC(=O)OC2CCNCC2)cc1` [8f, Piperidin-4-yl (4-Decylphenyl)carbamate Hydrochloride], for which the inhibition at 1 µM turned out to be 51%. On to `CCCCCCCc1ccc(NC(=O)N2CCNCC2)cc1` [20b, N-(4-Heptylphenyl)piperazine-1-carboxamide Hydrogen Chloride], for which the inhibition at 0.3 µM worked out at 28 ± 5%.

`CCCCCCCCCCc1ccc(C(=O)N2CCN[C@@H](C)C2)cc1.Cl` [(S)-4i, (S)-(4-Decylphenyl)(3-methylpiperazin-1-yl)methanone Hydrochloride]: the “%Inhib. (Spns2 inhibition, percent decrease in S1P secretion relative to control)” value is listed as 44 ± 1%. Further, the “%Inhib. (Spns2 inhibition, percent decrease in S1P secretion relative to control)” value (listed as 4i) is given as 68%. As to `CCCCCCCCCCc1ccc(NC(=O)N2CC3CC2CN3)cc1` (centres unmarked) [11j, N-(4-Decylphenyl)-2,5-diazabicyclo[2.2.1]heptane-2-carboxamide Hydrochloride], the inhibition at 1 µM was determined as 35%. In the case of `CCCCCCCCCCCc1ccc(NC(=O)N2CCNCC2)cc1` [20e, N-(4-Undecylphenyl)piperazine-1-carboxamide Hydrogen Chloride], the inhibition at 0.3 µM was found to be 76 ± 5%. Regarding `CCCCCCCCCCc1ccc(NC(=O)N[C@H]2CCNC2)cc1` [(S)-11d, (S)-1-(4-Decylphenyl)-3-(pyrrolidin-3-yl)urea Hydrochloride], the inhibition at 1 µM was 44 ± 2%. Consider `CCCCCCCCCCCCCc1ccc(NC(=O)N2CCNCC2)cc1` [20g, N-(4-Tridecylphenyl)piperazine-1-carboxamide Hydrogen Chloride], for which the inhibition at 0.3 µM worked out at 27 ± 12%.
